Measurements reported in article PMC6981637, “Tetrahydroquinoline-Isoxazole/Isoxazoline Hybrid Compounds as Potential Cholinesterases Inhibitors: Synthesis, Enzyme Inhibition Assays, and Molecular Modeling Studies” (International Journal of Molecular Sciences, 2019).
“And” between values parts separate entries of the source, which are not always exact repeats. Equal entries are not always repeated.

How the values were obtained:
[1] = molecular target: T1, BChE (from bovine serum) (Bos taurus, UniProt P32749); test: BChE inhibitory activity (Ellman method); assay type: biochemical; details: for IC50: Table 2, THQ–isoxazole hybrids 6, average from three independent experiments ± SEM, read-out: BChE (IC50); for selectivity against BChE: conclusions
T1 construct: purchased Sigma-Aldrich

[2] = molecular target: AChE (from Electrophorus electricus) (Electrophorus electricus, UniProt O42275); details: for IC50: read-out: AChE (IC50)
Chain of AChE (from Electrophorus electricus) (O42275 24-633): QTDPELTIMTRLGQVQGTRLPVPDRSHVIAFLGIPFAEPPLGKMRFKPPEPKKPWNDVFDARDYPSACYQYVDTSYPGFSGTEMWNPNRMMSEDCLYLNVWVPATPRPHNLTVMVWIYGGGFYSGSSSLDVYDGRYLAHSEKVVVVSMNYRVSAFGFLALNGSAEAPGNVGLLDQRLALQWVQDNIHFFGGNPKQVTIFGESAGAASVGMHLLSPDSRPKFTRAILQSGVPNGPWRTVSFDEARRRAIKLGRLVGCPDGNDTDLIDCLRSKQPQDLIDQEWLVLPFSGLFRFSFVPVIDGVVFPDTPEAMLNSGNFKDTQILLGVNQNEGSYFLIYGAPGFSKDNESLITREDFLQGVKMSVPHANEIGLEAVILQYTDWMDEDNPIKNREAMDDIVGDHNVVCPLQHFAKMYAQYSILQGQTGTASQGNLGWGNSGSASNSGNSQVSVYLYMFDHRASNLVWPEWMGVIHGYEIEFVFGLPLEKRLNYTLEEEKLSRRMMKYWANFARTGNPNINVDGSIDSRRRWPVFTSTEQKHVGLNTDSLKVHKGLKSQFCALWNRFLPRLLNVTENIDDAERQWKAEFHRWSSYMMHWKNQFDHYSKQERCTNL

T1 sequence (P32749 29-602): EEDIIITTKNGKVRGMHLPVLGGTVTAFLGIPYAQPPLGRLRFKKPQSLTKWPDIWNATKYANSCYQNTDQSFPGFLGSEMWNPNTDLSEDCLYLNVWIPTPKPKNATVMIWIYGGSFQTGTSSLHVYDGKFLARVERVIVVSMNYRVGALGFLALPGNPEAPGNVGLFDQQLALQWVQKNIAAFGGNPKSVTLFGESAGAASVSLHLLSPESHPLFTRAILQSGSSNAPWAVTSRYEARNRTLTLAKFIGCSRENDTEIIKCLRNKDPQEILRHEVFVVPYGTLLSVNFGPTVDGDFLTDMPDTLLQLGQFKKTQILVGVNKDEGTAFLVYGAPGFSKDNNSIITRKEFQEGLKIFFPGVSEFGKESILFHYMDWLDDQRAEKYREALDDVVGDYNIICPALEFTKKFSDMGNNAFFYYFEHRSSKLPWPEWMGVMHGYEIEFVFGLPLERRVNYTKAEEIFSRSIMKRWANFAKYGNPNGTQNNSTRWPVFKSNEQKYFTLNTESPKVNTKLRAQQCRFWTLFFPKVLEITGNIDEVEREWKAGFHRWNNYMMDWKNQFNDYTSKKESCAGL

COc1cc(Cl)c2c(c1)C(N1CCCC1=O)CCN2Cc1cc(-c2ccc(OC)c(OC)c2)no1 (centres unmarked) [6j, 5-((8′-chloro-6′-methoxy-4′-(2′’-oxopyrrolidin-1′’-yl)-3′,4′-dihydroquinolin-1′(2′H)-yl)methyl)-3-(3,4-dimethoxyphenyl)isoxazole]
IC50 [1]: 149 ± 0.02 µM | SI [2]: 2.72 | IC50 [2]: 54.69 ± 0.01 µM

COc1ccc2c(c1)C(N1CCCC1=O)CCN2Cc1cc(-c2cc(OC)c(OC)c(OC)c2)no1 (centres unmarked) [6k, 3-(3,4,5-trimethoxyphenyl)-5-((6′-methoxy-4′-(2′’-oxopyrrolidin-1′’-yl)-3′,4′-dihydroquinolin-1′(2′H)-yl)methyl)isoxazole]
IC50 [1]: 73.26 ± 0.01 µM | SI [2]: 3.63 | IC50 [2]: 20.19 ± 0.02 µM

O=C1CCCN1C1CCN(Cc2cc(-c3ccccc3)no2)c2ccc(Cl)cc21 (centres unmarked) [6l, 5-((6′-chloro-4′-(2′’-oxopyrrolidin-1′’-yl)-3′,4′-dihydroquinolin-1′(2′H)-yl)methyl)-3-phenylisoxazole]
IC50 [1]: 14.11 ± 0.02 µM | selectivity against BChE [1]: more selective | SI [2]: 0.15 | IC50 [2]: 92.01 ± 0.05 µM

COc1ccc(-c2cc(CN3CCC(N4CCCC4=O)c4cc(Cl)ccc43)on2)cc1 (centres unmarked) [6m, 5-((6′-chloro-4′-(2′’-oxopyrrolidin-1′’-yl)-3′,4′-dihydroquinolin-1′(2′H)-yl)methyl)-3-(4-methoxyphenyl)isoxazole]
IC50 [1]: 18.42 ± 0.01 µM | SI [2]: 1.39 | IC50 [2]: 13.27 ± 0.01 µM

COc1ccc(-c2cc(CN3CCC(N4CCCC4=O)c4cc(Cl)ccc43)on2)cc1OC (centres unmarked) [6n, 5-((6′-chloro-4′-(2′’-oxopyrrolidin-1′’-yl)-3′,4′-dihydroquinolin-1′(2′H)-yl)methyl)-3-(3,4-dimethoxyphenyl)isoxazole]
IC50 [1]: 24.67 ± 0.01 µM | SI [2]: 2.75 | IC50 [2]: 8.98 ± 0.01 µM

COc1ccc(-c2cc(CN3CCC(N4CCCC4=O)c4cc(Cl)cc(Cl)c43)on2)cc1OC (centres unmarked) [6o, 5-((6′,8′-dichloro-4′-(2′’-oxopyrrolidin-1′’-yl)-3′,4′-dihydroquinolin-1′(2′H)-yl)methyl)-3-(3,4-dimethoxyphenyl)isoxazole]
IC50 [1]: 313.82 ± 0.01 µM | SI [2]: 3.88 | IC50 [2]: 80.89 ± 0.04 µM

COc1cc(-c2cc(CN3CCC(N4CCCC4=O)c4cc(Cl)ccc43)on2)cc(OC)c1OC (centres unmarked) [6p, 5-((6′-chloro-4′-(2′’-oxopyrrolidin-1′’-yl)-3′,4′-dihydroquinolin-1′(2′H)-yl)methyl)-3-(3,4,5-trimethoxyphenyl)isoxazole]
IC50 [1]: 46.84 ± 0.01 µM | SI [2]: 1.11 | IC50 [2]: 41.95 ± 0.11 µM

CCc1ccc2c(c1)C(N1CCCC1=O)CCN2Cc1cc(-c2ccccc2)no1 (centres unmarked) [6q, 5-((6′-ethyl-4′-(2′’-oxopyrrolidin-1′’-yl)-3′,4′-dihydroquinolin-1′(2′H)-yl)methyl)-3-phenylisoxazole]
IC50 [1]: 108.28 ± 0.01 µM | SI [2]: 1.43 | IC50 [2]: 75.95 ± 0.04 µM

CCc1ccc2c(c1)C(N1CCCC1=O)CCN2Cc1cc(-c2ccc(OC)cc2)no1 (centres unmarked) [6r, 5-((6′-ethyl-4′-(2′’-oxopyrrolidin-1′’-yl)-3′,4′-dihydroquinolin-1′(2′H)-yl)methyl)-3-(4-methoxyphenyl)isoxazole]
IC50 [1]: < 7.18 µM and 7.18 µM | SI [2]: 0.38 | IC50 [2]: 18.83 ± 0.003 µM

CCc1cc(Cl)c2c(c1)C(N1CCCC1=O)CCN2Cc1cc(-c2ccc(OC)c(OC)c2)no1 (centres unmarked) [6s, 5-((8′-chloro-6′-ethyl-4′-(2′’-oxopyrrolidin-1′’-yl)-3′,4′-dihydroquinolin-1′(2′H)-yl)methyl)-3-(3,4-dimethoxyphenyl)isoxazole]
IC50 [1]: 22.28 ± 0.004 µM | SI [2]: 0.83 | IC50 [2]: 26.82 ± 0.002 µM

O=C1CCCN1C1CCN(Cc2cc(-c3ccccc3)no2)c2ccc(F)cc21 (centres unmarked) [6u, 5-((6′-fluor-4′-(2′’-oxopyrrolidin-1′’-yl)-3′,4′-dihydroquinolin-1′(2′H)-yl)methyl)-3-phenylisoxazole]
IC50 [1]: 17.74 ± 0.01 µM | selectivity against BChE [1]: more selective | SI [2]: 0.15 | IC50 [2]: 116.63 ± 0.01 µM

COc1ccc(-c2cc(CN3CCC(N4CCCC4=O)c4cc(F)ccc43)on2)cc1 (centres unmarked) [6v, 5-((6′-fluoro-4′-(2′’-oxopyrrolidin-1′’-yl)-3′,4′-dihydroquinolin-1′(2′H)-yl)methyl)-3-(4-methoxyphenyl)isoxazole]
IC50 [1]: 83.75 ± 0.01 µM | SI [2]: 1.97 | IC50 [2]: 42.48 ± 0.004 µM

COc1ccc(-c2cc(CN3CCC(N4CCCC4=O)c4cc(F)ccc43)on2)cc1OC (centres unmarked) [6w, 5-((6′-fluoro-4′-(2′’-oxopyrrolidin-1′’-yl)-3′,4′-dihydroquinolin-1′(2′H)-yl)methyl)-3-(3,4-dimethoxyphenyl)isoxazole]
IC50 [1]: 46.92 ± 0.01 µM | SI [2]: 2.79 | IC50 [2]: 16.83 ± 0.002 µM

COc1cc(-c2cc(CN3CCC(N4CCCC4=O)c4cc(F)ccc43)on2)cc(OC)c1OC (centres unmarked) [6x, 5-((6′-fluoro-4′-(2′’-oxopyrrolidin-1′’-yl)-3′,4′-dihydroquinolin-1′(2′H)-yl)methyl)-3-(3,4,5-trimethoxyphenyl)isoxazole]
IC50 [1]: 163.12 ± 0.01 µM | SI [2]: 6.57 | IC50 [2]: 24.83 ± 0.003 µM

O=C1CCCN1C1CCN(Cc2cc(-c3ccccc3)no2)c2ccc(Br)cc21 (centres unmarked) [6y, 5-((6′-bromo-4′-(2′’-oxopyrrolidin-1′’-yl)-3′,4′-dihydroquinolin-1′(2′H)-yl)methyl)-3-phenylisoxazole]
IC50 [1]: 84.91 ± 0.01 µM | SI [2]: 0.87 | IC50 [2]: 97.84 ± 0.01 µM

COc1ccc(-c2cc(CN3CCC(N4CCCC4=O)c4cc(Br)ccc43)on2)cc1 (centres unmarked) [6z, 3-(4-methoxyphenyl)-5-((6′-bromo-4′-(2′’-oxopyrrolidin-1′’-yl)-3′,4′-dihydroquinolin-1′(2′H)-yl)methyl)isoxazole]
IC50 [1]: < 7.18 µM and 5.81 µM | SI [2]: 0.48 | IC50 [2]: 12.19 ± 0.005 µM
